From US5696083A, “Personal care composition containing pyrithione and polymyxin” (Olin Corporation, priority 1994, dated 1997)

Assays:
Assay in all cases: Checkerboard MIC Test in Tryptic Soy Broth
Type in all cases: cell-based
Pseudomonas aeruginosa = conditions: 28° C., 3 days; for Minimum Inhibitory Concentration, Compound Used Alone: checkerboard, PE methanesulfonate, Na+, 14,310 units/mg
Method: (§1) Determinations of minimum inhibitory concentrations (MIC's) of the two compounds (pyrithione salts and/or polymyxin sulfate) in a nutrient broth (alone and in mixtures) were conducted to evaluate interactions. Stock solutions of pyrithione salts and/or polymyxin salts were diluted in Tryptic Soy Broth (Difco), and the dilutions were inoculated with an equal volume of bacterial culture (10^6 /ml) or fungal spore suspension (10^5 /ml) in Tryptic Soy Broth and incubated at 28° C. for 3-7 days.
(§2) The interactions of the antimicrobials were determined according to accepted procedures (M. C. Berenbaum [Tables 1 and 2] and P. F. Dougherty "Microdilution Transfer Plate Technique for Determining In Vitro Synergy of Antimicrobial Agents", ANTIMICROBIAL AGENTS AND CHEMOTHERAPY, Vol. 11, No. 2, p. 225-228 (Feb. 1977, American Society for Microbiology) [Tables 3 and 4]). The concentration of each agent in the combination that inhibits the organisms is expressed as a fraction of the concentration that causes the same effect when the same agent is tested alone (i.e., its fractional inhibitory concentration, FIC). If the sum of the FIC's is 1, the combination is additive in its antimicrobial effect; if the sum is <1, the combination is synergistic; and if the sum is >1, the combination is antagonistic.
(§3) ^b Each dilution contained 10^6 bacteria/ml of 10^5 fungi/ml.

[1] = system: Trichophyton mentagrophytes; conditions: 28° C., 5 days; for Minimum Inhibitory Concentration, Compound Used Alone: checkerboard, PE methanesulfonate, Na+, 14,310 units/mg
Method: as §1, §2, §3

Proteus mirabilis = conditions: 28° C., 3 days; for Minimum Inhibitory Concentration, Compound Used Alone: checkerboard, PE methanesulfonate, Na+, 14,310 units/mg
Method: as §1, §2, §3

Candida albicans = conditions: 28° C., 5 days; for Minimum Inhibitory Concentration, Compound Used Alone: checkerboard, PE methanesulfonate, Na+, 14,310 units/mg
Method: as §1, §2, §3

Pseudomonas fluorescens = conditions: 28° C., 3 days; for Minimum Inhibitory Concentration, Compound Used Alone: checkerboard, PE methanesulfonate, Na+, 14,310 units/mg
Method: as §1, §2, §3

## Polymyxin E methanesulfonate [PE]
Pseudomonas aeruginosa; Table 3
  Minimum Inhibitory Concentration, Compound Used Alone: 16 ppm
Pseudomonas aeruginosa; Table 3, concentration of the component in SP+PE mixtures, SP/PE range 4-16
  Minimum Inhibitory Concentration, Mixture Range: 4-8 ppm
Pseudomonas aeruginosa; Table 4
  Minimum Inhibitory Concentration, Compound Used Alone: 16 ppm
Pseudomonas aeruginosa; Table 4, concentration of the component in ZP+PE mixtures, ZP/PE range 2-8
  Minimum Inhibitory Concentration, Mixture Range: 4-8 ppm
[1]; Table 3
  Minimum Inhibitory Concentration, Compound Used Alone: 64 ppm
[1]; Table 3, concentration of the component in SP+PE mixtures, SP/PE range 1/2-8
  Minimum Inhibitory Concentration, Mixture Range: 4-32 ppm
[1]; Table 4
  Minimum Inhibitory Concentration, Compound Used Alone: 64 ppm
[1]; Table 4, concentration of the component in ZP+PE mixtures, ZP/PE range 1/4-4
  Minimum Inhibitory Concentration, Mixture Range: 4-32 ppm
Proteus mirabilis; Table 3
  Minimum Inhibitory Concentration, Compound Used Alone: > 16,400 ppm
Proteus mirabilis; Table 3, concentration of the component in SP+PE mixtures, SP/PE range 1/16-4
  Minimum Inhibitory Concentration, Mixture Range: 64-4096 ppm
Proteus mirabilis; Table 4
  Minimum Inhibitory Concentration, Compound Used Alone: > 16,400 ppm
Proteus mirabilis; Table 4, concentration of the component in ZP+PE mixtures, ZP/PE range 1/1024
  Minimum Inhibitory Concentration, Mixture Range: 4096 ppm
Candida albicans; Table 3
  Minimum Inhibitory Concentration, Compound Used Alone: > 8200 ppm
Candida albicans; Table 3, concentration of the component in SP+PE mixtures, SP/PE range 1/2048-1/4
  Minimum Inhibitory Concentration, Mixture Range: 64-2048 ppm
Candida albicans; Table 4
  Minimum Inhibitory Concentration, Compound Used Alone: > 8200 ppm
Candida albicans; Table 4, concentration of the component in ZP+PE mixtures, ZP/PE range 1/2048-1/4
  Minimum Inhibitory Concentration, Mixture Range: 32-2048 ppm
Pseudomonas fluorescens; Table 3
  Minimum Inhibitory Concentration, Compound Used Alone: 256 ppm
Pseudomonas fluorescens; Table 3, concentration of the component in SP+PE mixtures, SP/PE range ≤1/128-8
  Minimum Inhibitory Concentration, Mixture Range: 4-128 ppm
Pseudomonas fluorescens; Table 4
  Minimum Inhibitory Concentration, Compound Used Alone: 256 ppm
Pseudomonas fluorescens; Table 4, concentration of the component in ZP+PE mixtures, ZP/PE range ≤1/128-4
  Minimum Inhibitory Concentration, Mixture Range: 4-128 ppm
